In PMC4855798, “Cell-bound lipases from Burkholderia sp. ZYB002: gene sequence analysis, expression, enzymatic characterization, and 3D structural model” (BMC Biotechnology, 2016) one finds Km data, which are given here for one compound.

In the assay the test system is T1, LipC24.
T1 construct: mature LipC24 coding region (ORF 438 aa), His6-tag, E. coli Origami2 (DE3), co-expressed with foldase LipB lacking N-terminal 70 residues; purified by HisTrap and DEAE, single 45 kDa band; counterpart in B. cepacia J2315 is BCAM2764
In words: spectrophotometric 4-nitrophenol release, non-linear regression. The format is biochemical, Burkholderia sp. ZYB002. The following applies: 40 °C, 20 mmol/L Na2HPO4-NaH2PO4 buffer pH 7.5; 0.1-1.8 mmol/L substrate.

As a reminder, the Km is the concentration of substrate that gives half-maximal velocity. As for `CCCCCCCCCCCCCC(=O)Oc1ccc([N+](=O)[O-])cc1` [4-nitrophenyl myristate], the Km turned out to be 370 ± 70 µM.
